Measurements from the supplement of paper PMC4862054.

Columns and labels:
Settings in all cases: incubation time: 72 h
CAL-148 [1] = test: drug sensitivity score (DSS), CellTiter-Glo (DSS (AUC-based score)); higher = stronger drug effect (viability inhibition or cytotoxicity); extreme values may be limits of the assay
Outline: (§1)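 Using 20 µl of cell suspension per well, breast cancer cell lines were seeded into 384-well plates pre-loaded with compound at 5 concentrations in 10-fold steps across a compound-specific 10,000-fold range. Incubation lasted 72 h, after which CellTox Green fluorescence at 485/520 nm and then CellTiter-Glo luminescence, following 10 min at room temperature, were recorded. Each plate was normalised to 0.1 % DMSO and a positive kill control before the drug sensitivity score was derived from the area under the fitted dose-response curve.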

CAL-85-1 = test: as above
Outline: as §1

MDA-MB-231 = test: as above
Outline: as §1

MCF-10A = test: as above
Outline: as §1

HCC1599 = test: as above
Outline: as §1

HCC1143 [2] = test: as above
Outline: as §1

CAL-51 [3] = test: as above
Outline: as §1

Hs578T = test: as above
Outline: as §1

MDA-MB-436 = test: as above
Outline: as §1

HCC1937 [4] = test: as above
Outline: as §1

BT-474 = test: as above
Outline: as §1

DU-4475 = test: as above
Outline: as §1

MFM-223 = test: as above
Outline: as §1

CAL-120 [5] = test: as above
Outline: as §1

HDQ-P1 [6] = test: as above
Outline: as §1

BT-549 = test: as above
Outline: as §1

MDA-MB-453 = test: as above
Outline: as §1

SK-BR-3 = test: as above
Outline: as §1

MDA-MB-468 = test: as above
Outline: as §1

CAL-148 [7] = test: drug sensitivity score (DSS), CellTox Green (DSS (AUC-based score)); higher = stronger drug effect (viability inhibition or cytotoxicity); extreme values may be limits of the assay
Outline: as §1

CAL-120 [8] = test: as above
Outline: as §1

CAL-148 [9] = test: normalised viability (% of control), CellTiter-Blue; higher = more viable cells (about 100 = DMSO control)
Method: (§2)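 DSRT, CellTiter-Blue viability, 72 h incubation. Signal is normalised to DMSO and benzethonium chloride controls. Value is the normalised response at dose 3.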

HCC1143 [10] = test: as above
Method: as §2

CAL-51 [11] = test: as above
Method: as §2

HCC1937 [12] = test: as above
Method: as §2

HDQ-P1 [13] = test: as above
Method: as §2

Row | SMILES | drug sensitivity score (CAL-148 [1]) | drug sensitivity score (CAL-85-1) | drug sensitivity score (MDA-MB-231) | drug sensitivity score (MCF-10A) | drug sensitivity score (HCC1599) | drug sensitivity score (HCC1143 [2]) | drug sensitivity score (CAL-51 [3]) | drug sensitivity score (Hs578T) | drug sensitivity score (MDA-MB-436) | drug sensitivity score (HCC1937 [4]) | drug sensitivity score (BT-474) | drug sensitivity score (DU-4475) | drug sensitivity score (MFM-223) | drug sensitivity score (CAL-120 [5]) | drug sensitivity score (HDQ-P1 [6]) | drug sensitivity score (BT-549) | drug sensitivity score (MDA-MB-453) | drug sensitivity score (SK-BR-3) | drug sensitivity score (MDA-MB-468) | drug sensitivity score (CAL-148 [7]) | drug sensitivity score (CAL-120 [8]) | normalised viability (CAL-148 [9]; 10 nM) [%] | normalised viability (HCC1143 [10]; 100 nM) [%] | normalised viability (CAL-51 [11]; 10 nM) [%] | normalised viability (HCC1937 [12]; 100 nM) [%] | normalised viability (HDQ-P1 [13]; 10 nM) [%] | normalised viability (CAL-148 [9]; 100 nM) [%] | normalised viability (HCC1143 [10]; 1000 nM) [%] | normalised viability (CAL-51 [11]; 100 nM) [%] | normalised viability (HCC1937 [12]; 1000 nM) [%] | normalised viability (HDQ-P1 [13]; 100 nM) [%]
1 | CNC(=O)c1cc(Oc2ccc(NC(=O)Nc3ccc(Cl)c(C(F)(F)F)c3)c(F)c2)ccn1 [Regorafenib] | 0.856 | 0 | 0.969 | 4.48 | 1.51 | 0 | 5.7 | 3.86 | 1.08 | 1.28 | 2.89 | 1.79 | 6.42 | 1.79 | 2.22 | 1.23 | 2.37 | 1.17 | 1.92 | 0 | 0 | 93.6 | 74.6 | 101 | 90.4 | 89.6 |  |  |  |  | 
2 | S=P(N1CC1)(N1CC1)N1CC1 [Thio-TEPA] | 0 | 0 | 0 | 0 | 0 | 0 | 0 | 0 | 0 | 0 | 0 | 0 | 0 | 0 | 0 | 1.83 | 0 | 0 | 0 | 0 | 0 |  |  |  |  |  | 102 | 88.8 | 93.7 | 123 | 120
3 | C=C1C[C@@H]2[C@H](CC[C@]3(C)C(=O)CC[C@@H]23)[C@@]2(C)C=CC(=O)C=C12 [Exemestane] | 0 | 0 | 0 | 0 | 0 | 0 | 0 | 0 | 0 | 0 | 0 | 0 | 0 | 0 | 0 | 0 | 0 | 0 | 0 | 0 | 0 | 95.4 | 96 | 96.2 | 103 | 102 |  |  |  |  | 
4 | N#Cc1ccc(COC[C@H]2O[C@@H](n3c(NCc4ccc(Cl)c(Cl)c4)nc4c(N)ncnc43)[C@H](O)[C@@H]2O)cc1 | 0 | 0 | 0 | 1.78 | 0 | 1.09 | 0 | 1.73 | 0 | 3.1 | 3.43 | 2.77 | 0.407 | 0 | 1.31 | 3.44 | 0 | 2.28 | 2.09 | 0 | 0 | 103 | 94.7 | 109 | 99.4 | 116 |  |  |  |  | 
5 | O=C(Nc1cccnc1)N1CCC(Cc2cccc(Oc3ccc(C(F)(F)F)cn3)c2)CC1 [PF-3845] | 0 | 0.0221 | 0 | 0 | 1.04 | 0 | 2.47 | 0 | 0 | 0 | 0 | 0 | 0 | 0.24 | 0 | 1.34 | 0 | 0 | 3.47 | 0 | 0 | 86.9 | 89.9 | 101 | 107 | 116 |  |  |  |  | 
6 | c1ccc2c(CCNc3ccc(Nc4ccncc4)cc3)c[nH]c2c1 [Serdemetan] | 7.11 | 1.35 | 3.86 | 0 | 3.17 | 0 | 15.9 | 0.96 | 2.94 | 3.14 | 4.79 | 7.09 | 1.34 | 0 | 2.35 | 6.83 | 1.37 | 6.23 | 7.12 | 6.44 | 0 | 83.5 | 76 | 104 | 95.2 | 106 |  |  |  |  | 
7 | COc1cc2/c(=N/c3ccc(Br)cc3F)nc[nH]c2cc1OCC1CCN(C)CC1 [Vandetanib] | 0 | 0 | 0 | 10.3 | 0 | 0 | 0.137 | 0 | 0.551 | 0 | 3.47 | 0 | 0.335 | 0.197 | 0 | 0 | 0 | 0 | 4.76 | 0 | 0 | 92 | 111 | 99.3 | 81.8 | 76.7 |  |  |  |  | 
8 | COCC[n+]1c2c(n(Cc3cnccn3)c1C)C(=O)c1ccccc1C2=O [YM155] | 33 | 39.2 | 37.8 | 29.5 | 35.3 | 35.2 | 33.8 | 18.8 | 40.6 | 35.3 | 40 | 27.1 | 28.4 | 42.3 | 33.5 | 25.8 | 29.6 | 33 | 41.9 | 29.4 | 39 | 61.4 | 12.4 | 70.5 | 3.81 | 64.2 |  |  |  |  | 
9 | CC(C)C[C@@H](C(=O)N[C@H](C(=O)OC1CCCC1)c1ccccc1)[C@H](O)C(=O)NO [Tosedostat] | 5.14 | 12.7 | 11.1 | 0 | 0 | 5.96 | 4.55 | 2.74 | 5.37 | 8.46 | 16.9 | 0 | 6.14 | 12.7 | 5.25 | 12.3 | 14.1 | 0 | 19.1 | 0 | 13.6 | 91.2 | 89.3 | 101 | 67.9 | 113 |  |  |  |  | 
